# Counter-ions that a name gives are not always drawn.
# Tested on: rabbit cornea
# Assay: Corneal anaesthesia in rabbit (blinking reflex, Camougis and Tankman method)
# Type: in vivo
# Conditions: rabbit eye
# Procedure: […] of solution was instilled in the conjunctival sac. The blinking reflex, tested with a bristle, was measured before instillation and then every 5-10 minutes until one hour after treatment. At each test time the degree of anaesthesia was expressed by means of a score of up to 10 given by the number of stimulations before the eye-blink reflex was obtained. The overall anaesthetic effect for each compound was then quantified by the area under curve (AUC) of the degree of anaesthesia over time.
# [1] = Table 1, dose 0.125% (as hydrochloride), reference Bupivacaine HCl = 100
# [2] = Table 5, dose 0.125%, degree of salification, 500-730 kDa, reference Bupivacaine HCl = 100
compound,measurement,setting,value
stoichiometrically neutral salt of hyaluronic acid with bupivacaine [FID 62.2082],Anaesthesia (AUC),"Table 2, dose 0.125%, FID 62.20XX (750-1200 kDa), reference FID 62.2082 = 100",100
stoichiometrically neutral salt of hyaluronic acid with lidocaine [FID 60.2070],Anaesthesia (AUC),"Table 1, dose 1% (as hydrochloride), reference Lidocaine HCl = 100",167
stoichiometrically neutral salt of hyaluronic acid with bupivacaine [FID 60.2082],Anaesthesia (AUC),[1],166
same,Anaesthesia (AUC),"Table 2, dose 0.125%, FID 60.20XX (50-350 kDa), reference FID 60.2082 = 100",100
"CN(C)CCCOc1nn(Cc2ccccc2)c2ccccc12 [Benzydamine HCl, benzydamine hydrochloride]",Anaesthesia (AUC),"Table 1, dose 0.125% (as hydrochloride), reference Benzydamine HCl = 100",100
same,Anaesthesia (AUC),"Table 6, dose 0.125%, degree of salification, 50-350 kDa, reference Benzydamine HCl = 100",100
"CCCCN1CCCCC1C(=O)Nc1c(C)cccc1C (stereo not drawn) [Bupivacaine HCl, bupivacaine hydrochloride]",Anaesthesia (AUC),[1],100
same,Anaesthesia (AUC),"Table 3, first group (50% Na salts), dose 0.125%, reference Bupivacaine HCl = 100",100
same,Anaesthesia (AUC),"Table 3, second group (50% Ca salts), dose 0.125%, reference Bupivacaine HCl = 100",100
same,Anaesthesia (AUC),[2],100
stoichiometrically neutral salt of hyaluronic acid with bupivacaine [FID 61.2082],Anaesthesia (AUC),"Table 2, dose 0.125%, FID 61.20XX (500-730 kDa), reference FID 61.2082 = 100",100
same,Anaesthesia (AUC),[2],314
